# Reference: US9937180B2, “Constrained tricyclic sulfonamides” (ICAHN SCHOOL OF MEDICINE AT MOUNT SINAI, priority 2014, dated 2018)
# Where “and” joins values, the source holds several entries; their conditions need not be identical. Equal entries are not always repeated.
# Key:
# H1650 = H1650 Cell Viability Assays (GI50 Determination), MTT; assay type: cell-based; conditions: Homo sapiens, NCI-H1650, H1650 cells, 48 hours after drug treatment
# Experimental: H1650 Cell Viability Assays (GI50 Determination)
# Cell viability assays were performed according to Denizot, F. and R. Lang, Rapid colorimetric assay for cell growth and survival: Modifications to the tetrazolium dye procedure giving improved sensitivity and reliability Journal of Immunological Methods, 1986. 89[…]: p. 271-277.
# Cells were plated at 150,000 cells per well in a 12 well plate. Twenty-four hours after plating, cells were treated as described with increasing concentrations of drug and control. Forty-eight hours after drug treatment, cells were treated with 100 uL of 3-(4,5-Dimethylthiazol-2-yl)-2,5-diphenyltetrazolium bromide (MTT) and incubated for 2 hours at 37 C. The MTT solution was subsequently replaced with 300 uL of n-propyl alcohol and re-aliquoted to a 96 well plates. Spectrophotometric analysis of each solution was performed using a 96 well plate reader at 600 nm in triplicate.
# Molt4 cells = assay: MTS Cell Proliferation Assay (CellTiter96 AQueous); assay type: cell-based; conditions: Homo sapiens, MOLT-4, 48 hours, average of 3 biological replicates
# Experimental: MTS Cell Proliferation Assay GI50 for Example 3a and 3b for Molt4 cells was measured using the CellTiter96 AQueous Non-Radioactive Cell Proliferation Assay (Promega). Briefly, two technical replicates of 1×10^5 cells suspended in 50 μL RPMI-1640 media were pipetted per well into a 96-well plate for each condition. An equal volume of Example 3a or 3b was dissolved in media or vehicle control (DMSO) was added to each well for final concentration of 0, 5, 10, 15, 20, 30, 40, or 80 μM of 3a or 3b. Cells were allowed to grow for 48 hours at 37° C. with 5% CO2, after which 20 μL of MTS/PMS solution was added to each well and cells were incubated for an additional 4 hrs. At the end of the incubation period, A490 was read on a Biotek uQuant spectrophotometer to measure formazen production. Relative viability was calculated as A490 for each drug condition relative to vehicle alone.
# [1] = system: prostate cancer cell line LNCaP; assay: Mouse Tumor Assay: subcutaneous xenograft of prostate cancer cell line LNCaP; assay type: in vivo; conditions: LNCaP xenograft in male SCID nude castrated mice, 100 mg/kg BID oral gavage
# Experimental: (§1) Mouse Tumor Assay To assess the in vivo effects of the compounds, subcutaneous xenograft of prostate cancer cell line LNCaP was generated. Cells (5×10^6, 0.1 mL in 1:1 Matrigel:Media) were injected into the right flank of 8-week-old male SCID nude castrated mice (NCI). Tumor volume was assessed three times a week by caliper measurement. Mice were randomized to treatment groups based on initial tumor volume average of 247 mm^3 per group. Mice were dosed by oral gauvage with 100 mg/kg of Example 3a twice daily (BID) as a suspension in 0.1% Tween80/0.5% sodium carboxymethylcellulose (CMC) in water. […] Mouse body weights were recorded weekly and percentage of mice body weights during treatment was calculated as: weight at each time point/initial weight×100. […] Mice underwent treatment for 31 days and were sacrificed 2 hours after the last dose. Tumors were then excised and cut for both formalin-fixation and snap frozen in liquid nitrogen. No statistically significant toxicity was observed as judged from animal body weights of compound treated groups versus vehicle control group.
# [2] = Observation for signs of toxicity and body weights in the mouse tumor assay; assay type: in vivo; conditions: mice, 100 mg/kg BID oral, 31 days
# Experimental: as §1, with “To” for “Mouse Tumor Assay To”
GI50 (H1650) [µM],Compound,also measured
5,"O=S(=O)(N[C@@H]1CCCC(N2c3ccccc3Sc3ccccc32)[C@H]1O)c1ccc(OC(F)(F)F)cc1 (relative stereo) [Example 20, N-((1R,2R,3S)-rel-2-hydroxy-3-(10H-phenothiazin-10-yl)cyclohexyl)-4-(trifluoromethoxy)benzenesulfonamide]",
20,"O=S(=O)(N[C@@H]1CCC(N2c3ccccc3CCc3ccccc32)[C@H]1O)c1ccc(Cl)cc1 (relative stereo) [Example 18, 4-chloro-N-((1S,2S,3R)-rel-3-(10,11-dihydro-5H-dibenzo[b,f]azepin-5-yl)-2-hydroxycyclopentyl)benzenesulfonamide]",
10,"O=S(=O)(N[C@@H]1CCCC(N2c3ccccc3CCc3ccccc32)[C@H]1O)c1ccc(Cl)cc1 (relative stereo) [Example 4, N-(3-(10,11-dihydro-5H-dibenzo[b,f]azepin-5-yl)-2-hydroxycyclohexyl)-4-(chloro)benzenesulfonamide]",
15,"[N-]=[N+]=Nc1ccc(S(=O)(=O)N[C@@H]2CCCC(N3c4ccccc4CCc4ccccc43)[C@H]2O)cc1 (stereo in doubt) [Example 5, N-(3-(10,11-dihydro-5H-dibenzo[b,f]azepin-5-yl)-2-hydroxycyclohexyl)-4-(azido)benzenesulfonamide]",
5,"O=S(=O)(N[C@H]1CCC[C@@H](N2c3ccccc3CCc3ccccc32)[C@@H]1O)c1ccc(OC(F)(F)F)cc1Cl (stereo in doubt) [Example 29, 2-chloro-N-(3-(10,11-dihydro-5H-dibenzo[b,f]azepin-5-yl)-2-hydroxycyclohexyl)-4-(trifluoromethoxy)benzenesulfonamide]",
5,O=S(=O)(N[C@@H]1CCC[C@H](N2c3ccccc3CCc3ccccc32)[C@H]1O)c1ccc(OC(F)(F)F)cc1 [Example 3b],GI50 (Molt4 cells): 8 µM
15,"CC(C)(O)c1ccc(S(=O)(=O)N[C@H]2CCC[C@@H](N3c4ccccc4CCc4ccccc43)[C@@H]2O)cc1 [Example 27, N-((1S,2S,3R)-3-(10,11-dihydro-5H-dibenzo[b,f]azepin-5-yl)-2-hydroxycyclohexyl)-4-(2-hydroxypropan-2-yl)benzenesulfonamide]",
20,"COc1ccc(S(=O)(=O)N[C@H]2CCC[C@@H](N3c4ccccc4CCc4ccccc43)[C@@H]2O)cc1 [Example 23, N-((1S,2S,3R)-3-(10,11-dihydro-5H-dibenzo[b,f]azepin-5-yl)-2-hydroxycyclohexyl)-4-methoxybenzenesulfonamide]",
20,"CC(=O)c1ccc(S(=O)(=O)N[C@H]2CCC[C@@H](N3c4ccccc4CCc4ccccc43)[C@@H]2O)cc1 [Example 26, 4-Acetyl-N-((1S,2S,3R)-3-(10,11-dihydro-5H-dibenzo[b,f]azepin-5-yl)-2-hydroxycyclohexyl)benzenesulfonamide]",
15,"O=S(=O)(N[C@H]1CCCC(N2c3ccccc3CCc3ccccc32)[C@@H]1O)c1ccc(OC(F)(F)F)cc1 (relative stereo) [Example 2, N-((1,2-trans)-3-(10,11-dihydro-5H-dibenzo[b,f]azepin-5-yl)-2-hydroxycyclohexyl)-4-(trifluoromethoxy)benzenesulfonamide]",
5,"O=S(=O)(N[C@H]1CCC[C@@H](N2c3ccccc3CCc3ccccc32)[C@@H]1O)c1ccc(OC(F)(F)F)c(Cl)c1 (stereo in doubt) [Example 33, 3-chloro-N-(3-(10,11-dihydro-5H-dibenzo[b,f]azepin-5-yl)-2-hydroxycyclohexyl)-4-(trifluoromethoxy)benzenesulfonamide]",
5,"O=S(=O)(N[C@H]1CCC[C@@H](N2c3ccccc3CCc3cc(F)ccc32)[C@@H]1O)c1ccc(OC(F)(F)F)cc1 [Example 24, N-((1S,2S,3R)-3-(2-fluoro-10,11-dihydro-5H-dibenzo[b,f]azepin-5-yl)-2-hydroxycyclohexyl)-4-(trifluoromethoxy)benzenesulfonamide]",
7,"O=S(=O)(N[C@H]1CCC[C@@H](N2c3ccc(F)cc3CCc3cc(F)ccc32)[C@@H]1O)c1ccc(OC(F)(F)F)cc1 [Example 22, N-((1S,2S,3R)-3-(2,8-difluoro-10,11-dihydro-5H-dibenzo[b,f]azepin-5-yl)-2-hydroxycyclohexyl)-4-(trifluoromethoxy)benzenesulfonamide]",
10,"O=S(=O)(N[C@H]1CCC[C@@H](N2c3ccccc3CCc3ccccc32)[C@@H]1O)c1ccc(OC(F)F)cc1 (stereo in doubt) [Example 32, 4-(difluoromethoxy)-N-(3-(10,11-dihydro-5H-dibenzo[b,f]azepin-5-yl)-2-hydroxycyclohexyl)benzenesulfonamide]",
5,"O=S(=O)(N[C@H]1CCC[C@@H](N2c3ccccc3CCc3ccccc32)[C@@H]1O)c1ccc(SC(F)(F)F)cc1 [Example 28, N-(3-(10,11-dihydro-5H-dibenzo[b,f]azepin-5-yl)-2-hydroxycyclohexyl)-4-((trifluoromethyl)thio)benzenesulfonamide]",
10,"O=S(=O)(N[C@@H]1CCCC(N2c3ccccc3Sc3ccccc32)[C@H]1O)c1ccc(Cl)cc1 (relative stereo) [Example 21, 4-chloro-N-((1R,2R,3S)-rel-2-hydroxy-3-(10H-phenothiazin-10-yl)cyclohexyl)benzenesulfonamide]",
5,"O=S(=O)(N[C@H]1CCC[C@@H](N2c3ccccc3CCc3ccccc32)[C@@H]1O)c1ccc(CC(F)(F)F)cc1 [Example 30, N-(3-(10,11-dihydro-5H-dibenzo[b,f]azepin-5-yl)-2-hydroxycyclohexyl)-4-(2,2,2-trifluoroethyl)benzenesulfonamide]",
10,"O=S(=O)(N[C@H]1CCC[C@@H](N2c3ccccc3C=Cc3ccccc32)[C@@H]1O)c1ccc(OC(F)(F)F)cc1 (racemic) [Example 25, rac-N-((1S,2S,3R)-3-(5H-dibenzo[b,f]azepin-5-yl)-2-hydroxycyclohexyl)-4-(trifluoromethoxy)benzenesulfonamide]",
5,"O=S(=O)(N[C@@H]1CCCC(N2c3ccccc3CCc3ccccc32)[C@H]1O)c1ccc(OC(F)(F)F)cc1 (relative stereo) [Example 1, N-((1,2-trans)-3-(10,11-dihydro-5H-dibenzo[b,f]azepin-5-yl)-2-hydroxycyclohexyl)-4-(trifluoromethoxy)benzenesulfonamide]",
15,"O=S(=O)(N[C@@H]1CCC(N2c3ccccc3CCc3ccccc32)[C@H]1O)c1ccc(OC(F)(F)F)cc1 (relative stereo) [Example 17, N-((1S,2S,3R)-rel-3-(10,11-dihydro-5H-dibenzo[b,f]azepin-5-yl)-2-hydroxycyclopentyl)-4-(trifluoromethoxy)benzenesulfonamide]",
5,"O=S(=O)(N[C@H]1CCC[C@@H](N2c3ccccc3CCc3ccccc32)[C@@H]1O)c1ccc(C(F)(F)C(F)(F)F)cc1 [Example 31, N-(3-(10,11-dihydro-5H-dibenzo[b,f]azepin-5-yl)-2-hydroxycyclohexyl)-4-(perfluoroethyl)benzenesulfonamide]",

Compound,GI50 (H1650) [µM],also measured
O=S(=O)(N[C@H]1CCC[C@@H](N2c3ccccc3CCc3ccccc32)[C@@H]1O)c1ccc(OC(F)(F)F)cc1 [Example 3a],5,"Mean Tumor Volume(T) ([1]; 31 days): 485 mm³; % T/C ([1]; end of experiment (31 days), tumor versus vehicle control, 100 mg/kg): 35% and 34.6%; GI50 (Molt4 cells): 6 µM; signs of toxicity (mucous diarrhea, abdominal stiffness and weight loss) [2]: no adverse signs were observed"
